Patent US10808018B2, “Erythropoietin-derived peptides and methods of protecting cells from oxidative damage induced by reactive oxygen species” (SYLUS CO., LTD., priority 2017, dated 2020)
Peptide text beside a SMILES is read from it.

Molecular target: T1, Soluble mouse EPOR chimera proteins (erythropoietin receptor) (Mus musculus, UniProt P14753)
T1 construct: Soluble mouse EPOR chimera proteins; purchased R&D Systems
T1 sequence (P14753 25-249 limits assumed): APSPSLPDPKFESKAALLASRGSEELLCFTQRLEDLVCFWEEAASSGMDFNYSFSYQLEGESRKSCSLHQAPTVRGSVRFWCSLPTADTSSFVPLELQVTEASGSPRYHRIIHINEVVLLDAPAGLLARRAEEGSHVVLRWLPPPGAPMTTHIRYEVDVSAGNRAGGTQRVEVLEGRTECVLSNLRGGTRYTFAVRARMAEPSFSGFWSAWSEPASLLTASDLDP
Assay: Surface plasmon resonance (SPR) binding affinity to erythropoietin receptor
Settings: for Ka: association rate
From the text: The SPR technique is to measure interactions between biomolecules in real-time by using an optical principle without specific labeling, and is a system analyzing affinity between two molecules and kinetics, i.e., an association rate (Ka) and a dissociation rate (Kd). In detail, real-time SPR analysis may be performed using Reichert SPR Biosensor SR […] instrument (Reichert Inc., NY, USA). Soluble mouse EPOR chimera proteins (R&D Systems, Minneapolis, Minn., USA) were covalently linked to a carboxymethylated dextran matrix-coated chip (BR-1005-39, Pharmacia Biosensor AB) by an amine coupling procedure using an amine coupling kit (BR-1000-50, GE Healthcare, USA) in accordance with manufacturer's instructions. Each 5 pM, 2.5 pM, and 1.25 pM of the peptide samples of the present disclosure and scrambled peptides were applied at a flow rate of 5 μl/minute, and the experiments were independently performed in duplicate. For signal normalization, DMSO was applied at a flow rate of 5 μl/minute. After each binding cycle, the sensor chip was regenerated by injecting 25 mM of acetic acid at a flow rate of 20 μl/minute.

| SMILES | dissociation rate constant (koff) (Table 8) | Ka (Table 8) | Kd (Table 8) | Ka (Table 9) | dissociation rate constant (koff) (Table 9) |
| --- | --- | --- | --- | --- | --- |
| CC(C)C[C@H](NC(=O)CNC(=O)[C@H](C)NC(=O)[C@@H](NC(=O)[C@H](C)NC(=O)[C@H](CCCCN)NC(=O)[C@@H](N)CC(N)=O)C(C)C)C(=O)N[C@@H](CCCNC(=N)N)C(=O)N[C@@H](CO)C(=O)N[C@@H](CC(C)C)C(=O)N[C@H](C(=O)N[C@H](C(=O)N[C@@H](CC(N)=O)C(=O)O)C(C)C)[C@@H](C)O [ML8-1] (H-NKAVAGLRSLTVN-OH; N-terminus and C-terminus assumed) | 1.5 × 10^−1 | – | – | – | – |
| CC[C@H](C)[C@H](NC(=O)[C@H](C)NC(=O)[C@H](CCC(=O)O)NC(=O)[C@H](CCCCN)NC(=O)[C@H](CCC(N)=O)NC(=O)[C@H](C)NC(=O)CNC(=O)[C@H](CC(C)C)NC(=O)[C@H](C)NC(=O)[C@H](CCCNC(=N)N)NC(=O)[C@H](CC(C)C)NC(=O)[C@H](CC(C)C)NC(=O)[C@H](CO)NC(=O)[C@@H](NC(=O)[C@H](CC(C)C)NC(=O)[C@H](CO)NC(=O)[C@H](CCCNC(=N)N)NC(=O)[C@H](CC(C)C)NC(=O)CNC(=O)[C@@H](N)CCCCN)[C@@H](C)CC)C(=O)O [ML6-1] (H-KGLRSLISLLRALGAQKEAI-OH; N-terminus and C-terminus assumed) | 3 × 10^−2 | 1.9 × 10^2 | – | – | – |
| CC(C)C[C@H](NC(=O)CNC(=O)[C@H](CO)NC(=O)[C@@H](NC(=O)[C@H](C)NC(=O)[C@H](CCCCN)NC(=O)[C@H](CC(=O)O)NC(=O)[C@@H](NC(=O)[C@H](Cc1c[nH]cn1)NC(=O)[C@H](CC(C)C)NC(=O)[C@H](CCC(N)=O)NC(=O)[C@@H](N)CC(C)C)C(C)C)C(C)C)C(=O)N[C@@H](CCCNC(=N)N)C(=O)N[C@@H](CO)C(=O)N[C@@H](CC(C)C)C(=O)N[C@H](C(=O)N[C@H](C(=O)N[C@@H](CC(C)C)C(=O)N[C@@H](CC(C)C)C(=O)N[C@@H](CCCNC(=N)N)C(=O)N[C@@H](C)C(=O)N[C@@H](CC(C)C)C(=O)NCC(=O)O)[C@@H](C)O)[C@@H](C)O [ML1] (H-LQLHVDKAVSGLRSLTTLLRALG-OH; N-terminus and C-terminus assumed) | 8.5 × 10^−3 | 1.311 × 10^3 | 6.46 µM | 1310.8 | 8.47E−03 |
| CC(C)C[C@H](NC(=O)CNC(=O)[C@H](CCCCN)NC(=O)[C@@H](NC(=O)[C@H](CCCNC(=N)N)NC(=O)[C@H](CCCCN)NC(=O)[C@H](CCCCN)NC(=O)[C@@H](NC(=O)[C@H](Cc1c[nH]cn1)NC(=O)[C@H](CCCNC(=N)N)NC(=O)[C@H](CCC(N)=O)NC(=O)[C@@H](N)CC(C)C)C(C)C)C(C)C)C(=O)N[C@@H](CCCCN)C(=O)N[C@@H](CO)C(=O)N[C@@H](CC(C)C)C(=O)N[C@H](C(=O)N[C@H](C(=O)N[C@@H](CC(C)C)C(=O)N[C@@H](CC(C)C)C(=O)N[C@@H](CCCNC(=N)N)C(=O)N[C@@H](C)C(=O)N[C@@H](CC(C)C)C(=O)NCC(=O)O)[C@@H](C)O)[C@@H](C)O [ML1-C3] (H-LQRHVKKRVKGLKSLTTLLRALG-OH; N-terminus and C-terminus assumed) | – | – | – | 1104.9 | 0.01086 |
| CC(C)C[C@H](NC(=O)CNC(=O)[C@H](CO)NC(=O)[C@@H](NC(=O)[C@H](C)NC(=O)[C@H](CCCCN)NC(=O)[C@H](CC(=O)O)NC(=O)[C@@H](NC(=O)[C@H](CCC(=O)O)NC(=O)[C@H](CC(C)C)NC(=O)[C@H](CC(=O)O)NC(=O)[C@@H](N)CC(C)C)C(C)C)C(C)C)C(=O)N[C@@H](CCCNC(=N)N)C(=O)N[C@@H](CO)C(=O)N[C@@H](CC(C)C)C(=O)N[C@H](C(=O)N[C@H](C(=O)N[C@@H](CC(C)C)C(=O)N[C@@H](CC(C)C)C(=O)N[C@@H](CCCNC(=N)N)C(=O)N[C@@H](C)C(=O)N[C@@H](CC(C)C)C(=O)NCC(=O)O)[C@@H](C)O)[C@@H](C)O [ML1-C1] (H-LDLEVDKAVSGLRSLTTLLRALG-OH; N-terminus and C-terminus assumed) | – | – | – | 1745.7 | 0.2617 |
| CC(C)C[C@H](NC(=O)[C@H](C)NC(=O)[C@H](CCCNC(=N)N)NC(=O)[C@H](CC(C)C)NC(=O)[C@H](CC(C)C)NC(=O)[C@@H](NC(=O)[C@@H](NC(=O)[C@H](CC(C)C)NC(=O)[C@H](CO)NC(=O)[C@H](CCCNC(=N)N)NC(=O)[C@H](CC(C)C)NC(=O)CNC(=O)[C@H](CO)NC(=O)[C@@H](NC(=O)[C@H](C)NC(=O)[C@H](CCCCN)NC(=O)[C@H](CC(=O)O)NC(=O)[C@@H](NC(=O)[C@H](Cc1c[nH]cn1)NC(=O)[C@@H](N)CC(C)C)C(C)C)C(C)C)[C@@H](C)O)[C@@H](C)O)C(=O)O [ML2] (H-LHVDKAVSGLRSLTTLLRAL-OH; N-terminus and C-terminus assumed) | 4.4 × 10^−3 | – | – | – | – |
| CC[C@H](C)[C@H](NC(=O)[C@H](C)NC(=O)[C@H](CCC(=O)O)NC(=O)[C@H](CCCCN)NC(=O)[C@H](CCC(N)=O)NC(=O)[C@H](C)NC(=O)CNC(=O)[C@H](CC(C)C)NC(=O)[C@H](C)NC(=O)[C@H](CCCNC(=N)N)NC(=O)[C@H](CC(C)C)NC(=O)[C@H](CC(C)C)NC(=O)[C@@H](NC(=O)[C@@H](NC(=O)[C@H](CC(C)C)NC(=O)[C@H](CO)NC(=O)[C@H](CCCNC(=N)N)NC(=O)[C@H](CC(C)C)NC(=O)CNC(=O)[C@H](CO)NC(=O)[C@@H](NC(=O)[C@H](C)NC(=O)[C@H](CCCCN)NC(=O)[C@@H](N)CC(=O)O)C(C)C)[C@@H](C)O)[C@@H](C)O)C(=O)O [ML4] (H-DKAVSGLRSLTTLLRALGAQKEAI-OH; N-terminus and C-terminus assumed) | 2.2 × 10^−3 | 2.2 × 10^2 | – | – | – |
| CC[C@H](C)[C@H](NC(=O)[C@H](CC(C)C)NC(=O)[C@@H](NC(=O)[C@@H](NC(=O)[C@H](CC(C)C)NC(=O)[C@@H](NC(=O)[C@H](CCCNC(=N)N)NC(=O)[C@H](CC(C)C)NC(=O)CNC(=O)[C@@H](NC(=O)[C@H](C)NC(=O)[C@H](C)NC(=O)[C@H](CCCCN)NC(=O)[C@H](CC(=O)O)NC(=O)[C@@H](NC(=O)[C@H](CCC(=O)O)NC(=O)[C@H](CC(C)C)NC(=O)[C@H](CC(=O)O)NC(=O)[C@H](CC(C)C)NC(=O)[C@H](C)NC(=O)[C@H](CCC(=O)O)NC(=O)[C@@H](N)CC(=O)O)C(C)C)[C@@H](C)O)[C@@H](C)O)[C@@H](C)O)[C@@H](C)O)C(=O)N[C@@H](CCCNC(=N)N)C(=O)N[C@@H](C)C(=O)N[C@@H](CC(C)C)C(=O)O [ML7-1] (H-DEALDLEVDKAATGLRTLTTLIRAL-OH; N-terminus and C-terminus assumed) | 1.44 × 10^−2 | 2.26 × 10^2 | – | – | – |
| CC(C)[C@H](NC(=O)[C@H](CCCCN)NC(=O)[C@@H](N)[C@@H](C)O)C(=O)N[C@@H](CC(N)=O)C(=O)N[C@@H](Cc1ccccc1)C(=O)N[C@@H](Cc1ccc(O)cc1)C(=O)N[C@@H](C)C(=O)N[C@@H](Cc1c[nH]c2ccccc12)C(=O)N[C@@H](CCCCN)C(=O)N[C@@H](CCCNC(=N)N)C(=O)O [ML3] (H-TKVNFYAWKR-OH; N-terminus and C-terminus assumed) | 3 × 10^−3 | 2.05 × 10^2 | – | – | – |
| CC[C@H](C)[C@H](NC(=O)[C@H](C)NC(=O)[C@H](CCC(=O)O)NC(=O)[C@H](CCCCN)NC(=O)[C@H](CCC(N)=O)NC(=O)[C@H](C)NC(=O)CNC(=O)[C@H](CC(C)C)NC(=O)[C@H](C)NC(=O)[C@H](CCCNC(=N)N)NC(=O)[C@H](CC(C)C)NC(=O)[C@H](CC(C)C)NC(=O)[C@@H](NC(=O)[C@@H](NC(=O)[C@H](CC(C)C)NC(=O)[C@H](CO)NC(=O)[C@H](CCCNC(=N)N)NC(=O)[C@H](CC(C)C)NC(=O)CNC(=O)[C@@H](N)CO)[C@@H](C)O)[C@@H](C)O)C(=O)O [ML6] | 4.5 × 10^−2 | – | – | – | – |
